According to patent publication US20150073002A1, “COMBINATION” (GlaxoSmithKline LLC, priority 2010, published 2015):
Read-outs that look alike come from different tables or passages of the source.

What was measured:
BT474 = test: Cell apoptosis induction, caspase-3/7 activation, BT474; assay type: cell-based, human; conditions: BT474, 24 hours
Description: (§1) Human breast tumor cell lines BT474, HCC1419, HCC1954, JIMT1, MDA-MB-361, SK-BR-3 and UACC893 were cultured in RPMI 1640 medium containing 10% FBS. BT-474-J4, a breast cancer cell line acquired resistant to Compound A was cultured in RPMI 1640 medium containing 10% FBS and 1 μM of Compound A. KPL4 breast cancer line was cultured in DMEM containing 5% FBS. All lines were kept in a humidified incubator at 37° C. in 95% air and 5% CO2. JIMT-1 is a cell line established from a tumor of a patient with trastuzumab-resistant breast cancer. BT-474-J4 is a single cell clone derived from a culture of BT-474 cells that were selected to grow in Compound A to a concentration of 3 μM.
(§2) For investigation of the induction of apoptosis, cells were plated at 5,000 cells per well in a 96-well tissue culture plate and allowed to attach for approximately 24 hours. Cells were exposed to ten, two-fold or three-fold serial dilutions of compound or the combination of the two agents at a constant molar to molar ratio of 10:1 Compound A to Compound B in RPMI media containing 10% FBS or DMEM containing 5% FBS for KPL4. Twenty-four hours after compound treatment, caspase 3/7 activity was determined with the Caspase Glo™ 3/7 (Promega, cat G8093) according to the instructions provided by the manufacturer.

[1] = test system: HCC1419, SK-BR-3 and BT474 lines; test: Cell growth inhibition, text summary over three lines; assay type: cell-based; conditions: Homo sapiens, 72 h; over HCC1419, SK-BR-3 and BT474 lines, 3 days; read-out: IC50 as a single agent
Description: as §1
(§3) All cells were cultured for a minimum of 72 hours prior to cell plating. Cells were assayed in a 96-well tissue culture plate (NUNC 136102) of RPMI medium containing 10% FBS for all cells at 2,000 cells per well except KPL4, which were plated in DMEM containing 5% FBS at 500 cells per well. Approximately 24 hours after plating, cells were exposed to ten, two-fold or three-fold serial dilutions of compound or the combination of the two agents at a constant molar to molar ratio of 1:1 Compound A to Compound B in RPMI media containing 10% FBS or DMEM containing 5% FBS for KPL4. Cells were incubated in the presence of compounds for 3 days. ATP levels were determined by adding Cell Titer Glo® (Promega) according to the manufacturer's protocol. Briefly, Cell Titer Glo® was added to each plate, incubated for 20 minutes then the luminescent signal was read on a SpectraMax L plate reader with a 0.5 sec integration time.
(§4) Inhibition of cell growth was estimated after treatment with compound or a combination of compounds for three days and comparing the signal to cells treated with vehicle (DMSO). Cell growth was calculated relative to vehicle (DMSO) treated control wells. […]
(§5) Combination effects on potency were evaluated using Combination Index (CI) which was calculated with the back-interpolated IC50 values and the mutually non-exclusive equation derived by Chou and Talalay (Chou T C, Talalay P. Quantitative analysis of dose-effect relationships: the combined effects of multiple drugs or enzyme inhibitors. Adv Enzyme Regul 1984; 22:27-55): […]
(§6) The combination effects on the response scale were quantified by Excess Over Highest Single Agent (EOHSA) [Liu L, Shi H, Liu Y, Anderson A, Peterson J, Greger J, Martin A M, Gilmer T M. Synergistic Effects of Foretinib with HER-Targeted Agents in MET and HER1- or HER2-Coactivated Tumor Cells. […] For single agent and combination treatments, cells were exposed to compounds at a fixed-dose-ratio, and dose response curves were fit to the experimental data and analyzed using regression models described above. […]

[2] = test system: KPL-4, UACC893 and HCC1954 lines; test: as above; assay type: cell-based; conditions: Homo sapiens, 72 h; over KPL-4, UACC893 and HCC1954 lines, 3 days; read-out: IC50 as a single agent
Description: as §1, §3, §4, §5, §6

HCC1419 = test: Cell growth inhibition assay (Cell Titer Glo), HCC1419; assay type: cell-based; conditions: Homo sapiens, 72 h; HCC1419, 3 days, single agent; read-out: Single Agent IC50 (μM), mean ± STD
Description: as §1
(§7) All cells were cultured for a minimum of 72 hours prior to cell plating. […] ATP levels were determined by adding Cell Titer Glo® (Promega) according to the manufacturer's protocol. Briefly, Cell Titer Glo® was added to each plate, incubated for 20 minutes then the luminescent signal was read on a SpectraMax L plate reader with a 0.5 sec integration time.
as §4

JIMT-1 = test: Cell growth inhibition assay (Cell Titer Glo), JIMT-1; assay type: cell-based, human; conditions: JIMT-1, 3 days, single agent, read-out: Single Agent IC50 (μM), mean ± STD
Description: as §1, §3, §4, §5, §6

BT474-J4 = test: Cell apoptosis induction, caspase-3/7 activation, BT474-J4; assay type: cell-based, human; conditions: BT474-J4, 24 hours
Description: as §1, §2

MDA-MB-361 = test: Cell growth inhibition assay (Cell Titer Glo), MDA-MB-361; assay type: cell-based, human; conditions: MDA-MB-361, 3 days, single agent, read-out: Single Agent IC50 (μM), mean ± STD
Description: as §1
All cells were cultured for a minimum of 72 hours prior to cell plating. Cells were assayed in a 96-well tissue culture plate (NUNC 136102) of RPMI medium containing 10% FBS for all cells at 2,000 cells per well except KPL4, which were plated in DMEM containing 5% FBS at 500 cells per well. […] ATP levels were determined by adding Cell Titer Glo® (Promega) according to the manufacturer's protocol. Briefly, Cell Titer Glo® was added to each plate, incubated for 20 minutes then the luminescent signal was read on a SpectraMax L plate reader with a 0.5 sec integration time.
as §4, §5

KPL4 = test: Cell growth inhibition assay (Cell Titer Glo), KPL4; assay type: cell-based; conditions: Homo sapiens, 72 h; KPL4, 3 days, single agent; read-out: Single Agent IC50 (μM), mean ± STD
Description: as §1, §7, §4

HCC1954 = test: Cell growth inhibition assay (Cell Titer Glo), HCC1954; assay type: cell-based; conditions: Homo sapiens, 72 h; HCC1954, 3 days, single agent; read-out: Single Agent IC50 (μM), mean ± STD
Description: as §1, §7, §4

BT474-J4, and MDA-MB-361 = test: Cell growth inhibition, text summary over two lines; assay type: cell-based; conditions: Homo sapiens, 72 h; over BT474-J4 and MDA-MB-361 lines, 3 days; read-out: IC50 as a single agent
Description: All cells were cultured for a minimum of 72 hours prior to cell plating. […] Cells were incubated in the presence of compounds for 3 days. ATP levels were determined by adding Cell Titer Glo® (Promega) according to the manufacturer's protocol.
Cell growth was calculated relative to vehicle (DMSO) treated control wells.
In general, a CI value <0.9, between 0.9 and 1.1, or >1.1 indicates synergy, additivity and antagonism, respectively. In general, the smaller the CI number, the greater is the strength of synergy.

BT-474-J4 = test: Cell growth inhibition assay (Cell Titer Glo), BT-474-J4; assay type: cell-based, human; conditions: BT-474-J4, 3 days, single agent, read-out: Single Agent IC50 (μM), mean ± STD
Description: as §1, §3, §4

KPL-4 = test: Cell apoptosis induction, caspase-3/7 activation, KPL-4; assay type: cell-based, human
Description: as §1, §2

SK-BR-3 = test: Cell growth inhibition assay (Cell Titer Glo), SK-BR-3; assay type: cell-based; conditions: Homo sapiens, 72 h; SK-BR-3, 3 days, single agent; read-out: Single Agent IC50 (μM), mean ± STD
Description: as §1, §7, §4

UACC893 = test: Cell growth inhibition assay (Cell Titer Glo), UACC893; assay type: cell-based; conditions: Homo sapiens, UACC-893, 72 h; UACC893, 3 days, single agent; read-out: Single Agent IC50 (μM), mean ± STD
Description: as §1, §7, §4

BT-474 = test: Cell growth inhibition assay (Cell Titer Glo), BT-474; assay type: cell-based; conditions: Homo sapiens, 72 h; BT-474, 3 days, single agent; read-out: Single Agent IC50 (μM), mean ± STD
Description: as §1, §7, §4

SMILES	IC50 [1] [µM]	IC50 [2] [µM]	IC50 (HCC1419) [µM]	IC50 (JIMT-1; Homo sapiens, JIMT-1, 72 h) [µM]	IC50 (JIMT-1) [µM]	IC50 (MDA-MB-361; Homo sapiens, MDA-MB-361, 72 h) [µM]	IC50 (KPL4) [µM]	IC50 (HCC1954) [µM]	IC50 (BT-474-J4; Homo sapiens, 72 h) [µM]	IC50 (SK-BR-3) [µM]	IC50 (UACC893) [µM]	IC50 (BT-474) [µM]	other results
CS(=O)(=O)CCNCc1ccc(-c2ccc3ncnc(Nc4ccc(OCc5cccc(F)c5)c(Cl)c4)c3c2)o1 [Compound A, N-{3-Chloro-4-[(3-fluorobenzyl)oxy]phenyl}-6-[5-({[2-(methanesulphonyl)ethyl]amino}methyl)-2-furyl]-4-quinazolinamine, reference compound]	≤ 0.134	0.9 to 1.7	0.077 ± 0.017	≥ 6.8	> 10	> 10	0.86 ± 0.039	1.73 ± 0.165	9.23 ± 3.83	0.105 ± 0.039	1.12 ± 0.15	0.134 ± 0.049	caspase 3/7 activity (BT474; compound alone, dose response): increased caspase 3/7 activity in a dose dependent manner; caspase 3/7 activity (BT474-J4; compound alone at 10 μM): slight increase in caspase 3/7 activity; IC50 (BT474-J4, and MDA-MB-361): ≥ 9.2 µM; caspase 3/7 activity (KPL-4; KPL4, 24 hours, compound alone at 10 μM): slight increase in caspase 3/7 activity
Cn1ncc(Cl)c1-c1cc(C(=O)N[C@H](CN)Cc2cccc(F)c2)sc1Cl [Compound B, N-{(1S)-2-amino-1-[(3-fluorophenyl)methyl]ethyl}-5-chloro-4-(4-chloro-1-methyl-1H-pyrazol-5-yl)-2-thiophenecarboxamide]	≥ 2.6	0.5 to 3.7	2.62 ± 0.548	≥ 6.8	6.81 ± 2.13	0.7	0.113 ± 0.012	3.67 ± 2.97	0.5	4.19 ± 1.58	0.505 ± 0.303	3.3 ± 1.1	caspase 3/7 activity (BT474; compound alone at 1 μM): slightly increased caspase 3/7 activity; caspase 3/7 activity (BT474-J4; compound alone at 1 μM): slightly increased caspase 3/7 activity; IC50 (MDA-MB-361): 0.758 ± 0.074 µM; IC50 (BT-474-J4): 0.67 ± 0.026 µM; caspase 3/7 activity (KPL-4; KPL-4, 24 hours, compound alone at 1 μM): but not in the KPL-4 line
